The record followed here is article PMC2574850 (Cellular signalling, 2008).

What is called Kd is the concentration at which binding is half-saturated. Read a high Kd as lower affinity.

In the experiment the target is T1, PH ([325-451]ASAP1) (Mus musculus, UniProt Q9QWY8).
T1 sequence (Q9QWY8 325-451): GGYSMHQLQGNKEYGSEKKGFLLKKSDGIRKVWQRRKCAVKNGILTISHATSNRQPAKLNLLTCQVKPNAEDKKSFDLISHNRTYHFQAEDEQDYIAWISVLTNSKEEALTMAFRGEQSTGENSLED
Kind of experiment: isothermal titration calorimetry. Type of experiment: binding. For orientation: Isothermal titration calorimetry measures the heat released or taken up as one component is titrated into another.

In the case of `O=P(O)(O)O[C@@H]1[C@H](O)[C@H](O)[C@@H](OP(=O)(O)O)[C@H](OP(=O)(O)O)[C@H]1O` [IP3], the Kd stood at 75 ± 15 µM.
